“And” between values parts separate entries of the source, which are not always exact repeats. Identical values can stand only once.

For data set [1], the system named is Novozyme lipase from Aspergillus oryzae. As to the kind of experiment: Titrimetric lipase activity after 40 min pre-incubation of the enzyme in acid solution. Type of data set: biochemical. The protocol:
The objective of this example was to test the effect of acid type and concentration on the lipase activity after pre-incubation of the enzyme for 40 minutes in acid solution. The following acids and levels were tested; (1) 5 ml lactic acid (8 g/1000 ml pH 2.57), add 20 μl lipase and 980 μl water inhibition 40 min; (2) 5 ml lactic acid (2 g/1000 ml pH 2.85), add 20 μl lipase and 980 μl water inhibition 40 min; (3) 5 ml lactic acid (16 g/1000 ml pH 2.48), add 20 μl lipase and 980 μl water inhibition 40 min; (4) 5 ml acetic acid (1 g/1000 ml pH 2.80), add 20 μl lipase and 980 μl water inhibition 40 min; (5) 5 ml HCL (4 g/1000 ml, pH 1.5), add 20 μl lipase and 980 μl water inhibition 40 min; (6) 5 ml green tea extract (8 g/1000 ml), add 20 μl lipase and 980 μl water inhibition 40 min.
Lipase (3.1.1.3) activity was adapted from the method set forth in “Worthington, Von.; The Worthington Manual; 1993 from Worthington Biochemical Corporation, 730 Vassar Avenue, Lakewood, N.J. 08701”.
H. Olive oil-gum Arabic emulsion: Prepare by dissolving 16.5 grams of gum Arabic in 130 ml of reagent grade water. Once the material is in solution, dilute to a final volume of 165 ml with reagent grade water. Add 20 ml of reagent grade olive oil and 15 grams crushed ice. Blend the mixture in a Waring blender at low speed for 3 min and filter the emulsion through glass wool. Prepare fresh daily. Enzyme:
The titration can be measured with a laboratory pH meter (a Corning pH meter 360i equipped with A-58905-66 High-performance combination pH electrode).
Blank rate determination: Adjust the pH of the reaction mixture to 8.0 and record the volume of titrant required to maintain the pH at 8.0 for 3-4 minutes after a constant rate is achieved. Determine the “blank rate” as the volume of titrant added per minute from the final linear portion of the curve.
Sample determination: at zero time, add appropriately diluted enzyme and readjust the pH to 8.0 if necessary. Record the volume of titrant required to maintain the pH at 8.0 for 5-6 minutes. Determine the “sample rate” as the volume of titrant added per minute from the linear portion of the curve.

Data set [2] in a line: Solvent Retention Capacity (SRC) of flour, adapted from AACC 56-10. Type of data set: physicochemical. Also on record: Flour SRC sucrose / Flour SRC Sodium carbonate / Flour SRC Lactic acid / Flour SRC Water: unit not given here. The protocol: Solvent Retention Capacity (SRC) serves as a practical test to monitor the function of specific flour components, such as the amount of damaged starch. The SRC assay method used was adapted and modified from AACC method 56-10, according to the following procedure:
• 50 ml centrifuge tubes+caps • 5% weight sodium carbonate solvent • Centrifuge (IEC, Centra GP8, 269 rotor, 2130 rpm) Procedure: • 1. Weigh 50 ml centrifuge tubes+caps (for special tubes weight O-ring seals) • 2. Weigh and add 5.00 g of bran-germ mixture to each tube (determine moisture content of mixture) • 3. Add 25 g of solvent (pre-weighed solvent aliquots) to each tube • 4. Allow it to hydrate for 20 min, shaking every 5 min (5, 10, 15, 20) • 5. Centrifuge for 15 min at 1000×g • 6. Decant supernatant and drain 5 min at 45° angle and 5 min at 90° angle. • 7. Put cap back and weigh pellet

A short description of data set [3]: Flour moisture (AACC Method 44-15A). Type of data set: physicochemical. The conditions noted are these: coarse bran fraction before recombining. The protocol:
Whole grain flour pH was measured in a 10% slurry (one part flour to 9 part water) using a Corning pH meter 360i equipped with an A-58905-66 High-performance combination pH electrode. Ash is determined according to AOAC official method 923.03 for measuring ash in flour. Flour moisture was determined according to AACC Method 44-15A.

The test system of data set [4] is free fatty acids formed in whole grain flour. Nature of the data set: Free fatty acid content of whole grain flour, fresh and after accelerated storage (SPE, GC-FID). More on the design: species or system wheat. The protocol: The objective of this example was to test the effect of acid tempering on the stability of whole grain flour during storage. The amount of free fatty acid formed was measured after flour storage in a sealed glass jar for 30 days under accelerated storage conditions of 92° F. […] The flours tested were: […] Results were compared to the amount of free fatty acids formed in untreated control flour. Whole grain flours were made with natural proportion of bran component and endosperm obtained from the flour mill. Whole grain flour ash content was used to confirm composition. Free fatty acid content of whole grain flour (fresh flour and 30 days aged flour) was determined according to the following method: Free fatty acid content of the flours was adapted from the method set forth in “Jong, C.; Badings, H. T.; Journal of High Resolution Chromatography; 1990; Determination of Free Fatty Acids in Milk and Cheese Procedures for Extraction, Clean up, and Capillary Gas Chromatography Analysis”. Lipid extracts, containing free fatty acids, are obtained from foods by extraction with acidified organic solvents. The anhydrous lipid extracts are passed through a weak anion exchange SPE cartridge to isolate the free fatty acids from the coextracted material, particularly neutral glycerides. • a. […] HP5890 Series II] • b. Autosampler compatible with the GC, [example: HP7673] • c. Software system capable of collecting chromatographic data, calculating statistics and tabulating results • d. Analytical balance with 0.0001 g resolution, 150 g capacity • e. Centrifuge capable of 3000 rpm (2050 rcf), with temperature control, (optional) • f. Polytron able to homogenize samples at 25000 rpm [example: Brinkmann Instruments, Polytron Kinematica AG Model PT 1300 D] • g. Vortex Mixer • h. Solvent Dispensers with inert plastic components [example: […] Column: […] SPE cartridges: […] Glass centrifuge test tubes with teflon lined screw caps, size: 16×125 mm • 4. Corex glass centrifuge tubes with teflon lined screw caps, 45 mL [example: COREX II No. 8422-A] • 5. Whatman Filter paper #1, 125 mm Diameter • 6. Pyrex brand filtering funnel, short stem • 7. Disposable Culture Tubes, borosilicate glass 16×150 mm [example: VWR Cat #47729-580] • 8. Glass vials with teflon lined screw caps, 4 mL. [example: Kimble Cat #60940A 4] • 9. Autosampler vials, borosilicate glass, crimp-top with teflon lined caps • 10. Amber borosilicate bottles with teflon lined screw cap, 100 mL • 11. Clear borosilicate bottle with teflon lined screw cap, 250 mL • 12. Graduated cylinders: 250 mL, 100 mL • 13. […] Glass volumetric pipettes class A 5, 2, 1 mL and graduated 10, 5 mL • 15. Disposable Pasteur pipettes: 53⁄4 and 9 inch • 16. Microspatula, spatula, and polypropylene sample transfer tubes Reagents/Solutions Reagents and Standards • 1. Ethanol-200 proof, anhydrous, 99.5%+, stored in amber glass [Aldrich #45, 983-6 or equivalent] • 2. Hexanes-GC grade [B&J #216-4 or equivalent] • 3. iso-Propanol-GC grade [B&J #323-4 or equivalent] • 4. Methyl-tert-butylether (MTBE)-GC grade [B&J #242-4 or equivalent] • 5. Methylene chloride-GC grade [B&J #299-4 or equivalent] • 6. […] Sulfuric acid-ACS reagent, 95.0-98.0% [Fisher Reagent ACS #A800-500 or equivalent] • 8. Water Type 1 [Fisher HPLC #W5-4 or equivalent] • 9. Diatomaceous Earth [Leco part #502-327 or equivalent] • 10. […] Standards (Standard Preparation See Appendix 13.1) • a. Internal Standard: 11:0; Surrogates: 9:0 and 13:0 • b. Matrix Spike (MS) standard working solution in ethanol: MS @ 50 µg/mL. This level may be appropriate for low to mid-level determinations. Generally the FFA levels vary tremendously within a given matrix. Consequently a spike solution of varying amounts per individual FFA may be necessary per matrix. • c. Calibration Standards in hexanes establish linear range: […] Comment: 18:1 and 18:2 calculations are based on 18:0 response factor. • d. […]

Data set [5] is described as follows: AACC 10-53 Cookie Test Baking. The conditions noted are these: lactic acid 3000 ppm, green tea extract 7000 ppm. The source says:
AACC 10-53 Cookie Test Baking Method was designed at Nabisco Biscuit Company for evaluation of ingredient functionality and predictive correlation between sensory and mechanical texture analysis (mechanical texture analysis by TAXT2 Texture analyzer 3 point bend or puncture test). The test is an improvement over AACC 10-52 Sugar-Snap Cookie Test Baking Method as confirmed by USDA Soft Wheat Quality Lab (Wooster Ohio). The AACC 10-53 test was adopted as the official method of the American Association of Cereal Chemists after collaborative testing by the Soft Wheat Quality Committee in 1992. The equipment, cookie dough composition, mixing procedure, baking procedure, measurement procedure, etc. used in the test are: The Standard Formulation AACC 10-53 Single Batch to Make 4 Test Cookies is: [table] [table] The general mixing procedure used is: The baketime is defined as the time required to produce a weight loss of 13.85% during baking of the formulation at 400 F. Portion four 60 g pieces of dough with minimum deformation and place on cookie sheet. Lay rolling pin across gauge bars of cookie sheet allowing weight of pin to compress the dough pieces without additional compressive force. Pick up rolling pin and place on gauge bars at end of cookie sheet, and roll only once away from you. Cut cookies with 60 mm cutter, and carefully lift scrap dough with small spatula. […]

Data set [6] is described as follows: Whole grain flour pH in 10% slurry. Type of data set: physicochemical.
The mark [7] stands for this setting: lactic acid 3000 ppm, green tea extract 7000 ppm.
Setting [8] is: after 30 days at 92 F, flour at about pH=4.5.

Turning to `CC(=O)O` [Acetic acid, acetic acid], in data set [1] (40 min acid pre-treat 0.005 g/15 ml, 0.006 M, pH 2.8), the Lipase activity is 5.33 Units/μl.
Consider `CC(O)C(=O)O` (stereo not shown) [Lactic acid, lactic acid], for which, in data set [2] (as a function of temper time and amount of lactic acid added, FIG. 7), the “flour strength as measured by lactic acid SRC value” is “did not decrease flour strength”. Besides, the “Flour SRC Lactic acid” value in data set [2] (setting [7]) was 69.11 and 69.40. For the same molecule, the “Flour SRC Sodium carbonate” value in data set [2] (setting [7]) is 76.58 and 78.67. In addition, the “Flour SRC Water” value in data set [2] (setting [7]) was 59.53 and 60.35. Further, the “Flour SRC sucrose” value in data set [2] (setting [7]) is 95.77 and 94.23. Further, in data set [3], the coarse bran moisture was found to be 14.49. The Lipase activity turned out to be 6.45 Units/μl in data set [1] (40 min acid pre-treat 0.02 g/15 ml, 0.015 M, pH 2.85); 5.8 Units/μl in data set [1] (40 min acid pre-treat 0.04 g/15 ml, 0.030 M, pH 2.57); 4.15 Units/μl in data set [1] (40 min acid pre-treat 0.08 g/15 ml, 0.059 M, pH 2.48). The “Flour fatty acid formation” value in data set [4] (after 28 days at 92 F, about 9000 ppm lactic acid concentration and 4.5 pH) was 1425 ppm; in data set [4] (setting [8]), 1382 ppm. Besides, the “Whole grain flour fatty acid content after storage” value in data set [4] (storage at 82 F, compared to control, Example 9) is “reduced compared to control”. In data set [4] (whole grain flour, lactic acid 3000 ppm, green tea extract 7000 ppm (dry weight/initial kernel weight)), the “FFA (ppm) 3 week at 28 C.” value was 2628 ppm and 2364 ppm. Moreover, the “Cookie dough pH” value in data set [5] is 7.65 and 7.52. For the same molecule, the “break flour pH” value in data set [6] (break flour fraction before recombining) was 4.88. Further, in data set [6] (fine bran fraction before recombining), the “fine bran pH” value stood at 4.52. Also, the “Flour pH” value in data set [6] (setting [7]) was 5.54 and 5.56; in data set [6] (soft red whole grain flour from treated wheat) it was 5.6.
For `Cl` [hydrochloric acid], in data set [1] (40 min acid pre-treat 0.02 g/15 ml, 0.036 M, pH 1.5), the Lipase activity is given as 0 Units/μl. Also, in data set [4] (setting [8]), the “Flour fatty acid formation” value is 746 ppm.
For the molecule `O=P(O)(O)O` [phosphoric acid], in data set [4] (setting [8]), the “Flour fatty acid formation” value was 1592 ppm.

The values are drawn from patent publication US10212958B2, “Method for producing stabilized whole wheat flour” (Intercontinental Great Brands LLC, priority 2011, dated 2019).
